Assays:
[1] = target: VEGFR2 (Homo sapiens (Human), UniProt P35968); assay: VEGFR2 Cellular Assay (FLIPR, VEGF induced intracellular calcium in HUVEC); format: cell-based; settings: VEGF165 stimulation 10 ng/mL, read-out: Receptor VEGFR2 IC50
Protocol: (§1) VEGFR2 Cellular Assay Automated FLIPR (Fluorometric Imaging Plate Reader) technology was used to screen for inhibitors of VEGF induced increases in intracellular calcium levels in fluorescent dye loaded endothelial cells. HUVEC (human umbilical vein endothelial cells) (Clonetics) were seeded in 384-well fibronectin coated black-walled plates overnight at 37° C./5% CO2. Cells were loaded with calcium indicator Fluo-4 for 45 minutes at 37° C. Cells were washed 2 times (Elx405, Biotek Instruments) to remove extracellular dye. For screening, cells were pre-incubated with test agents for 30 minutes, at a single concentration (10 μM) or at concentrations ranging from 0.0001 to 10.0 μM followed by VEGF165 stimulation (10 ng/mL). […] Data were generated by determining max-min fluorescence levels for unstimulated, stimulated, and drug treated samples. IC50 values for test compounds were calculated from % inhibition of VEGF stimulated responses in the absence of inhibitor.

[2] = target: PDGFRβ (Homo sapiens (Human), UniProt P09619); assay: PDGFRβ Cellular Assay (FLIPR, PDGF-induced intracellular calcium in NHDF-Ad); format: cell-based; settings: PDGF-BB stimulation 30 ng/mL, read-out: Receptor PDGFRβ IC50
PDGFRβ, sequence (P09619 33-1106): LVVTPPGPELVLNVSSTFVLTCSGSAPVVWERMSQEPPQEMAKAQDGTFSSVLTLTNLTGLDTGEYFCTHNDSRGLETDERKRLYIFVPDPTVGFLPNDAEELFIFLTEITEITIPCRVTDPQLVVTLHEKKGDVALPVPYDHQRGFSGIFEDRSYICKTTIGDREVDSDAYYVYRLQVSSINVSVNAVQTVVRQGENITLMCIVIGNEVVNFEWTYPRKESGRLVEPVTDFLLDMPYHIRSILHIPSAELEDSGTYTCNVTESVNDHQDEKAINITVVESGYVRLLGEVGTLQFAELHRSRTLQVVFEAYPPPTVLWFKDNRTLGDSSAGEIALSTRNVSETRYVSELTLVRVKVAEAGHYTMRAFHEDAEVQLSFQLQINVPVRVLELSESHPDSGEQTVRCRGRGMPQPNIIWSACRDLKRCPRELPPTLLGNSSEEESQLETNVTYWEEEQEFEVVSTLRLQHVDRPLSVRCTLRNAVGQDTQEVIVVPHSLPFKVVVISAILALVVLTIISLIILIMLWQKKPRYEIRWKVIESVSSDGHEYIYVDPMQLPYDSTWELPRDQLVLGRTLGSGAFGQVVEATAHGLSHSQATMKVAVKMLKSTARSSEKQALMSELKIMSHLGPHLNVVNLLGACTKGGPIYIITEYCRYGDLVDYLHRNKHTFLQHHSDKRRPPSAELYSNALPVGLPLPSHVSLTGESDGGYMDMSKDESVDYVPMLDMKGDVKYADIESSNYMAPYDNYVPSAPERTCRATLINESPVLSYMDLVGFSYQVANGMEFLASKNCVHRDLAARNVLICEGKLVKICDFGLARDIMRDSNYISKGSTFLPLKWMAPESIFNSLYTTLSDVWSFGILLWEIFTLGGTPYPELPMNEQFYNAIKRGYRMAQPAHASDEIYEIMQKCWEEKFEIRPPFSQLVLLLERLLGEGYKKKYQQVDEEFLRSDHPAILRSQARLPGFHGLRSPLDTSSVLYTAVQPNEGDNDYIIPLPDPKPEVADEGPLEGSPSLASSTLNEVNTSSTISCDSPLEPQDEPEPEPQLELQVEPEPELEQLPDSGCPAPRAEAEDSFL
Protocol: as §1, with “Automated” for “VEGFR2 Cellular Assay Automated”, “of PDGF-induced” for “of VEGF induced”, “cells. NHDF-Ad (Normal Human Dermal Fibroblasts, Adult; Lonza)” for “cells. HUVEC (human umbilical vein endothelial cells) (Clonetics)”, “by PDGF-BB” for “by VEGF165”, “stimulation (30” for “stimulation (10”, “of PDGF-BB” for “of VEGF”

[3] = target: PDGFRβ (cytoplasmic domain PDGFR-b protein) (Homo sapiens (Human), UniProt P09619); assay: PDGFRβ Kinase Assay; format: biochemical; settings: 36 μM ATP, poly-Glu-Tyr substrate; read-out: Enzyme PDGFRβ IC50
PDGFRβ (cytoplasmic domain PDGFR-b protein), sequence (P09619 554-1106): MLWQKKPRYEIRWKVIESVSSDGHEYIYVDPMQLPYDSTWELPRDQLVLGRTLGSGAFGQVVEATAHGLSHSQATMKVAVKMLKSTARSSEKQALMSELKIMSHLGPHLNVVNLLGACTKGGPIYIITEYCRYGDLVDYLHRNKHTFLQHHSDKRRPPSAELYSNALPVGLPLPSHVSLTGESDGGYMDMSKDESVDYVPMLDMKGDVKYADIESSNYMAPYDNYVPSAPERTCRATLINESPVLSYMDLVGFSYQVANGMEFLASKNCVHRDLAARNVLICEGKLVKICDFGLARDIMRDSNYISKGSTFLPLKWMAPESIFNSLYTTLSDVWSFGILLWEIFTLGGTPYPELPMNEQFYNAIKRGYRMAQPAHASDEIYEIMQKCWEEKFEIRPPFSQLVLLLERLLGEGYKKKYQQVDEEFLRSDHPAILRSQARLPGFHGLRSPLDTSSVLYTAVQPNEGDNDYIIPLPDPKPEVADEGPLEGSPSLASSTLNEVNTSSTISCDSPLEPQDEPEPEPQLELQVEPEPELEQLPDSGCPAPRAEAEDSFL
Protocol: Biochemical PDGFRβ kinase assays were performed in 96 well microtiter plates that were coated overnight with 75 μg of poly-Glu-Tyr (4:1) in 10 mM Phosphate Buffered Saline (PBS), pH 7.4. The coated plates were washed with 2 mls per well PBS+0.05% Tween-20 (PBS-T), blocked by incubation with PBS containing 1% BSA, then washed with 2 mls per well PBS-T prior to starting the reaction. […] Reactions were initiated by the addition 20 μl per well of kinase buffer containing 200-300 ng purified cytoplasmic domain PDGFR-b protein (Millipore). Following a 60 minute incubation at 30° C., the reactions were washed 2 mls per well PBS-T. 100 μl of a monoclonal anti-phosphotyrosine antibody-peroxidase conjugate diluted 1:10,000 in PBS-T was added to the wells for 30 minutes. Following a 2 mls per well wash with PBS-Tween-20, 100 μl of O-Phenylenediamine Dihydrochloride in phosphate-citrate buffer, containing urea hydrogen peroxide, was added to the wells for 7-10 minutes as a colorimetric substrate for the peroxidase. […] IC50 values for compound inhibition were calculated directly from graphs of optical density (arbitrary units) versus compound concentration following subtraction of blank values.

[4] = target: VEGFR2 (cytoplasmic domain KDR protein) (Homo sapiens (Human), UniProt P35968); assay: VEGFR2 Kinase Assay (biochemical KDR kinase assay); settings: 2.7 μM ATP, poly-Glu-Tyr substrate; read-out: Enzyme VEGFR2 IC50
VEGFR2 (cytoplasmic domain KDR protein), sequence (P35968 786-1356): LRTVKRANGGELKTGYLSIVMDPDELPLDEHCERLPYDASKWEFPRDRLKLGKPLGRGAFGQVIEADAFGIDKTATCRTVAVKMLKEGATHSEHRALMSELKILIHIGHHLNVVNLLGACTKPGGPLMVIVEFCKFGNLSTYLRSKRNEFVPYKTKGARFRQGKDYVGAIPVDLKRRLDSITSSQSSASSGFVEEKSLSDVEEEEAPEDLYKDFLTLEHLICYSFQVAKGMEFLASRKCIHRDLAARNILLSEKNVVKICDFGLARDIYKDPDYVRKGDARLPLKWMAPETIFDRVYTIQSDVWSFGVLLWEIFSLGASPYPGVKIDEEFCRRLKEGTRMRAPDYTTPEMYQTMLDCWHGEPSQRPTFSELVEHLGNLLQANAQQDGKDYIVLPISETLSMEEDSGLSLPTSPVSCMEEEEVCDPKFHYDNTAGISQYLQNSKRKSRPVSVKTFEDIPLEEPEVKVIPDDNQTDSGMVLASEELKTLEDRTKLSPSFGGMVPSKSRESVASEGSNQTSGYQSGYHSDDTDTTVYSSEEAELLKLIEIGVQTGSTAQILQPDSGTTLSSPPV
Protocol: Biochemical KDR kinase assays were performed in 96 well microtiter plates that were coated overnight with 75 μg/well of poly-Glu-Tyr (4:1) in 10 mM Phosphate Buffered Saline (PBS), pH 7.4. The coated plates were washed with 2 mls per well PBS+0.05% Tween-20 (PBS-T), blocked by incubation with PBS containing 1% BSA, then washed with 2 mls per well PBS-T prior to starting the reaction. Reactions were carried out in 100 μL reaction volumes containing 2.7 μM ATP in kinase buffer (50 mM Hepes buffer pH 7.4, 20 mM MgCl2, 0.1 mM MnCl2 and 0.2 mM Na3VO4). […] Reactions were initiated by the addition 20 μl per well of kinase buffer containing 200-300 ng purified cytoplasmic domain KDR protein (BPS Bioscience, San Diego, Calif.). Following a 15 minute incubation at 30° C., the reactions were washed 2 mls per well PBS-T. 100 μl of a monoclonal anti-phosphotyrosine antibody-peroxidase conjugate diluted 1:10,000 in PBS-T was added to the wells for 30 minutes. Following a 2 mls per well wash with PBS-Tween-20, 100 μl of O-Phenylenediamine Dihydrochloride in phosphate-citrate buffer, containing urea hydrogen peroxide, was added to the wells for 7-10 minutes as a colorimetric substrate for the peroxidase. The reaction was terminated by the addition of 100 μl of 2.5N H2SO4 to each well and read using a microplate ELISA reader set at 492 nm. IC50 values for compound inhibition were calculated directly from graphs of optical density (arbitrary units) versus compound concentration following subtraction of blank values.

VEGFR2, sequence (P35968 20-1356): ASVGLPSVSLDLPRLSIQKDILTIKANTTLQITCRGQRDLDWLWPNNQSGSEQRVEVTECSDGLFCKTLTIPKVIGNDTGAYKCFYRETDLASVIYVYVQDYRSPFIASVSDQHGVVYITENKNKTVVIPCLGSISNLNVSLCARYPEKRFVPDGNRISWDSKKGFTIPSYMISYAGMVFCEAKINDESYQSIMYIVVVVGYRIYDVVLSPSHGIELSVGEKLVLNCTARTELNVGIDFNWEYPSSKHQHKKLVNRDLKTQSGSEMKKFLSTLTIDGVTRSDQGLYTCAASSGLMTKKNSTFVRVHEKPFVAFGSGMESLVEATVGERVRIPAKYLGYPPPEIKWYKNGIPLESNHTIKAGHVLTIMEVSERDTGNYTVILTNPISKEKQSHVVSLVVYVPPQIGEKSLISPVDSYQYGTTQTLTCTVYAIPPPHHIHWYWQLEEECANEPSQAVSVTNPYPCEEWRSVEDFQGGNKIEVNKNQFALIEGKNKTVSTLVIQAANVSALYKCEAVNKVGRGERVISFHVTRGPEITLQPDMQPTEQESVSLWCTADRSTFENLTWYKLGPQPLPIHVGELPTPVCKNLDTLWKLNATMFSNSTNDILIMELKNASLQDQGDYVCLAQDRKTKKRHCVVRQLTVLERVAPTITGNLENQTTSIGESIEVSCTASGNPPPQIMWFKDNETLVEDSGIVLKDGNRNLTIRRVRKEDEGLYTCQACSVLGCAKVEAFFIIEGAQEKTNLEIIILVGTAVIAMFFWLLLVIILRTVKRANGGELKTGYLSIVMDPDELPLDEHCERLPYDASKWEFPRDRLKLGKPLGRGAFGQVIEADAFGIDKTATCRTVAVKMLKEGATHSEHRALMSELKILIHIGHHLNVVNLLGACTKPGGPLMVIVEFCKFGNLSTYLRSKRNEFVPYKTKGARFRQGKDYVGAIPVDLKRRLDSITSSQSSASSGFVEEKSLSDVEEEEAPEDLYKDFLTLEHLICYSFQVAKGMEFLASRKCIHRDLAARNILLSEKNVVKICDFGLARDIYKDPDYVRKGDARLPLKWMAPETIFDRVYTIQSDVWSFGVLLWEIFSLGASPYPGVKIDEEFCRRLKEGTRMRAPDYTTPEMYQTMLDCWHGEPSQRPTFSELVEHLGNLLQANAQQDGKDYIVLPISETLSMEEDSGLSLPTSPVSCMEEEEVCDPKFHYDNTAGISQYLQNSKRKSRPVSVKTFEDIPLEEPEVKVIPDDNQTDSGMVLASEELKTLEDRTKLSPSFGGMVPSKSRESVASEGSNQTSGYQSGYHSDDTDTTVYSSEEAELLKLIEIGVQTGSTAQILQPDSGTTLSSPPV

| IC50 [1] [nM] | IC50 [2] [nM] | IC50 [3] [nM] | IC50 [4] [nM] | SMILES |
| --- | --- | --- | --- | --- |
| 132 | 70 | 80 | 23 | Cc1cccc(NC(=O)Nc2ccc(C#Cc3ccc4nccn4n3)cc2)c1 [Example 3, 1-[4-(imidazo[1,2-b]pyridazin-6-ylethynyl)phenyl]-3-(3-methylphenyl)urea] |
| 51 | 227 | 34 | 20 | Cc1cccc(NC(=O)Nc2ccc(C#Cc3ccc4nc(N)cn4n3)cc2)c1 [Example 1, 1-{4-[(2-aminoimidazo[1,2-b]pyridazin-6-yl)ethynyl]phenyl}-3-(3-methylphenyl)urea] |
| > 10000 | 10500 | 6570 | 1690 | Nc1ccc(C#Cc2ccc3nc(NC(=O)Nc4ccc(F)c(Cl)c4)cn3n2)cc1 [Example 14, 1-{6-[(4-aminophenyl)ethynyl]imidazo[1,2-b]pyridazin-2-yl}-3-(3-chloro-4-fluorophenyl)urea] |
| 962 | 457 | 32 | 47 | O=C(Nc1ccc(C#Cc2ccc3nccn3n2)cc1)Nc1cccc(C(F)(F)F)c1 [Example 2, 1-[4-(imidazo[1,2-b]pyridazin-6-ylethynyl)phenyl]-3-[3-(trifluoromethyl)phenyl]urea] |
| 4400 | > 10000 | > 10000 | > 10000 | Cc1ccc(F)c(C(=O)Nc2ccc(C#Cc3ccc4nc(N)cn4n3)cc2)c1 [Example 20, N-{4-[(2-aminoimidazo[1,2-b]pyridazin-6-yl)ethynyl]phenyl}-2-fluoro-5-methylbenzamide] |
| > 10000 | 17800 | 27 | 2360 | O=C(Nc1cccc(C#Cc2ccc3nccn3n2)c1)c1ccccc1 [Example 27, N-[3-(imidazo[1,2-b]pyridazin-6-ylethynyl)phenyl]benzamide] |
| > 10000 | 3630 | 3610 | 2930 | O=C(Nc1ccc(C#Cc2ccc3nc(NC(=O)Nc4ccc(F)c(Cl)c4)cn3n2)cc1)Nc1ccc(F)c(Cl)c1 [Example 15, 1-(3-chloro-4-fluorophenyl)-3-(4-{[2-({[(3-chloro-4-fluorophenyl)amino]carbonyl}amino)imidazo[1,2-b]pyridazin-6-yl]ethynyl}phenyl)urea] |

— patent publication US9233968B1, “Kinase inhibitors” (Allergan, Inc., priority 2014, dated 2016)
